# Assays:
# [1] = Pharmacological Study Report II: body weight and food intake; type: in vivo, rat; details: for Average food consumption, Week 1 / Average food consumption, Week 2 / Average food consumption, Week 3 / Average food consumption, Week 4: fa/fa rats, average +/- SD
# Protocol: (§1) Thirty-six obese Zucker fa/fa and six lean Zucker fa/? male rats obtained from Charles River, were housed under normal vivarium conditions on a 12 hour light/dark cycle. The rats were kept two to a cage with food and water available ad lib, except during the weekly, 4 hour fasts. Water continued to be available during these fasts.
# (§2) Compound A corresponds to Cariporide. Compound B corresponds to 2-Methyl-4,5-di-(methylsulfonyl)-benzoyl-guanidine hydrochloride hydrate. Compounds A and B were supplied in powder form by Merck Serono. Drugs were incorporated into a pelleted diet (LabDiet, 5001) by Research Diets, Inc (New Brunswick, N.J.) at concentrations of 0.44 g/kg or 0.88 g/kg of diet to yield approximate doses of 40 or 80 mg/kg. The concentration was calculated based on the assumption that a 300 g rat would eat about 30 g/d of chow. The same chow, but without drug, was fed to rats of both the lean and fa/fa control group animals.
# One week prior to the start of the study, all rats were weighed. After a 4 hour fast, a blood sample was obtained for the determination of blood glucose, insulin, and glycosylated hemoglobin levels (HbA1c). Animals were then sorted on the basis of these parameters into the groups listed below. Rats were eight weeks of age at the onset of treatment.
# (§3) • 1. ZF rats (fa/fa) (n=6) chow without drug • 2. ZF rats (fa/fa) (n=6) compound A (40 mg/kg/day) • 3. ZF rats (fa/fa) (n=6) compound A (80 mg/kg/day) • 4. ZF rats (fa/fa) (n=6) compound B (40 mg/kg/day) • 5. ZF rats (fa/fa) (n=6) compound B (80 mg/kg/day) • 6. lean Zucker rats (fa/?) (n=6) chow without drug Dosing Regime
# Treatment appropriate chow was continuously available for 4 weeks except during scheduled 4 h fasts conducted once per week.
# individual body weights were determined once per week. Average food intake per cage was also determined once per week and the individual rat consumption was calculated by dividing the cage average by 2 (rats housed 2/cage).
# obese Zucker fa/fa rats = assay: Pharmacological Study Report II: 2H-glucose disposal test (2H-GDT) on Days 0, 14 and 28; type: in vivo, rat
# Protocol: as §1, §2, §3
# Insulin sensitivity (SI) and pancreatic compensation (PC) were measured by conducting ^2H-Glucose disposal test on Days 0, 14 and 28.
# Time −4 h: Before the fast was begun on the morning of the GDT, a blood sample was taken to determine the random glucose level (see above). An additional blood sample was collected to determine the baseline ^2H2O and ^18O enrichments. The rats were weighed and the 4 h fast was begun. Water was available during the fast.
# Time −3 h: One 1 hour after the start of the fast, 1.75 mg/g body weight of 10% H2^18O was administered by oral gavage (^2H2O-free H2O^18 water; 10% ^18O atom from Spectra; Cat. No 51350).
# Time 0: 4 hours after the start of the fast, the blood glucose and insulin levels were determined. Rats received 4 ml/kg of a 50% glucose solution (comprised of 25% [6,6-^2H2] glucose and 25% D-glucose) by oral gavage.
# At times 15, 30, 60 and 90 min post glucose challenge, blood glucose concentrations were again determined by a glucometer reading from tail vein blood. Additional blood samples were collected for insulin determinations. At 60 and 90 min post glucose challenge, whole blood was collected to determine the ^2H2O and H2^18O enrichments. All blood samples were centrifuged and the plasma was stored at −20° C. until assayed. The deuterium and oxygen-18 isotope enrichments of body water were determined by IRIS analysis of the water distillate of the plasma samples.
# ^2H2O enrichment was converted to mmol by multiplying enrichment (^2H2O APE) by the total body water pool size and dividing by 20 (molecular weight of ^2H2O). Total ^2H2O produced was calculated as the percent of the [6,6-^2H2] glucose load administered. Plasma insulin and glucose areas under the curve (AUC 60 min) were calculated using the trapezoidal method (GraphPad Prism).
# Two parameters were calculated from the ^2H-GDT: • 1. Insulin sensitivity index (SI)=^2H2O production (% load)/(glucose AUC×insulin AUC). • 2. Pancreatic compensation (PC)=the absolute ^2H2O production as a percent of total [6,6-^2H2] glucose load (% load)/the integrated glucose response (glucose AUC; to correct for insulin-independent utilization). Statistics
# Overall results of glucose and insulin measures were analyzed by a 2 way repeated measures ANOVA using drug and time (repeated) as factors. The primary analysis was followed by Bonferroni posttests to compare all groups. Data are considered significant at p<0.05. AUC 60 min values for glucose and insulin were analyzed by 1 way ANOVA followed by Tukey's comparison of all groups.
# [2] = 40 and 80 mg/kg (neither dose), 4 weeks
smiles,measurement,setting,value
"CC(C)c1ccc(C(=O)NC(=N)N)cc1S(C)(=O)=O [Compound A, Cariporide]",Average weekly food intake vs chow fed fa/fa controls,"[1]; Zucker fa/fa rats, 4 weeks, 40 or 80 mg/kg in chow",did not differ significantly
same,"Average food consumption, Week 1",[1]; 40 mg/kg in chow,32.2 +/− 3.5 grams
same,"Average food consumption, Week 2",[1]; 40 mg/kg in chow,33.1 +/− 2.6 grams
same,"Average food consumption, Week 3",[1]; 40 mg/kg in chow,33.9 +/− 2.4 grams
same,"Average food consumption, Week 4",[1]; 40 mg/kg in chow,34.9 +/− 2.7 grams
same,"Average food consumption, Week 1",[1]; 80 mg/kg in chow,34.3 +/− 2.5 grams
same,"Average food consumption, Week 2",[1]; 80 mg/kg in chow,32.8 +/− 4.3 grams
same,"Average food consumption, Week 3",[1]; 80 mg/kg in chow,32.3 +/− 4.5 grams
same,"Average food consumption, Week 4",[1]; 80 mg/kg in chow,30.8 +/− 5.6 grams
same,Glucose level at the 90 min time point of the 2H-GDT vs fa/fa vehicle,"obese Zucker fa/fa rats; 40 mg/kg, 4 weeks of treatment",elevated above that of the fa/fa vehicle treated rats
same,Blood glucose and insulin concentrations in response to glucose challenge (2H-GDT),"obese Zucker fa/fa rats; 4 weeks after start of treatment, 40 and 80 mg/kg",continued to have elevated
same,Glucose tolerance,obese Zucker fa/fa rats; 4 weeks of treatment,did not improve
same,Glucose levels (either fasting or in response to challenge),obese Zucker fa/fa rats; [2],Neither dose of Compound A significantly improved
same,Insulin sensitivity (SI),obese Zucker fa/fa rats; [2],Neither dose of Compound A significantly improved
same,Pancreatic compensation (PC),obese Zucker fa/fa rats; [2],Neither dose of Compound A significantly improved
same,Glucose or insulin response to glucose challenge (2H-GDT),"obese Zucker fa/fa rats; after 2 weeks of treatment, 40 and 80 mg/kg",did not affect

# — patent publication US10292949B2, “Pharmaceutical composition comprising rimeporide for treating diseases associated with insulin resistance and β-cell dysfunction” (Merck Patent GmbH, priority 2008, dated 2019)
